Data taken from ChEMBL document CHEMBL1201862, “PubChem BioAssay data set” (2004).
Activity calls are given as the source filed them.

How the values were obtained:
[1] = biological target: T1, Type-1 angiotensin II receptor (Homo sapiens, UniProt P30556); assay: AT1 receptor antagonists, dose response, selectivity assay for APJ receptor antagonist project, cell-based, uHTS hits (AID 463214); type: functional;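 also: antagonist potency against angiotensin II stimulated AT1 response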
T1 sequence (P30556 whole entry): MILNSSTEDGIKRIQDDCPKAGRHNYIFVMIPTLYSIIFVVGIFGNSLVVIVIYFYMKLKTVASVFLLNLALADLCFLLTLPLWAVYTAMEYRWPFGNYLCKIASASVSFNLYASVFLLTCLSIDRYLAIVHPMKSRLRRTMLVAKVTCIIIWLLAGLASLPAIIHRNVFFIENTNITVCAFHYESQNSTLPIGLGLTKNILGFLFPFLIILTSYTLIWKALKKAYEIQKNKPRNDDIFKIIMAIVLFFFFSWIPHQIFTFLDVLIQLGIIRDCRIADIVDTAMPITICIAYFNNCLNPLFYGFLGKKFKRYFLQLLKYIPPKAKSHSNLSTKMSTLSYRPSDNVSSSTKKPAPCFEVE

[2] = Fluorescence-based cell-based high throughput dose response assay for inhibitors of the interaction of nucleotide-binding oligomerization domain containing 2 (NOD2) and the receptor-interacting serine-threonine kinase 2 (RIPK2).; type: functional; settings: Homo sapiens
[3] = biological target: Beta-galactosidase (Escherichia coli, UniProt Q8VNN2); assay: PubChem AID 485352; type: functional
[4] = Shn3 3'UTR reporter inhibitors, dose response, cell-based, Clone20 osteoblasts, firefly luciferase, cherry-picked (AID 624132); type: functional;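 also: firefly luciferase luminescence from reporter carrying the Shn3 3'UTR in osteoblasts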
[5] = system: HEK293; assay: cells; settings: Homo sapiens
[6] = HepG2 cell cytotoxicity, dose response, cytotoxicity control for Shn3 inhibitor project, CellTiter-Glo, cherry-picked (AID 624134); type: functional, cell-based
[7] = system: HEK293; assay: cells; settings: Homo sapiens; remark: listed apart in the source
[8] = system: A-375; assay: A375 melanoma cell viability reduction, dose response, counter-screen for MITF modulator project, cherry-pick samples, set 2 (AID 540335); type: functional, cell-based; settings: Homo sapiens
[9] = biological target: T2, Short transient receptor potential channel 4 (Mus musculus, UniProt Q9QUQ5); assay: mouse TRPC4 channel activators, dose response, cell-based, HEK293 TRPC4/mu-opioid, Fluo-4 calcium (AID 434937); type: functional
T2 sequence (Q9QUQ5 whole entry): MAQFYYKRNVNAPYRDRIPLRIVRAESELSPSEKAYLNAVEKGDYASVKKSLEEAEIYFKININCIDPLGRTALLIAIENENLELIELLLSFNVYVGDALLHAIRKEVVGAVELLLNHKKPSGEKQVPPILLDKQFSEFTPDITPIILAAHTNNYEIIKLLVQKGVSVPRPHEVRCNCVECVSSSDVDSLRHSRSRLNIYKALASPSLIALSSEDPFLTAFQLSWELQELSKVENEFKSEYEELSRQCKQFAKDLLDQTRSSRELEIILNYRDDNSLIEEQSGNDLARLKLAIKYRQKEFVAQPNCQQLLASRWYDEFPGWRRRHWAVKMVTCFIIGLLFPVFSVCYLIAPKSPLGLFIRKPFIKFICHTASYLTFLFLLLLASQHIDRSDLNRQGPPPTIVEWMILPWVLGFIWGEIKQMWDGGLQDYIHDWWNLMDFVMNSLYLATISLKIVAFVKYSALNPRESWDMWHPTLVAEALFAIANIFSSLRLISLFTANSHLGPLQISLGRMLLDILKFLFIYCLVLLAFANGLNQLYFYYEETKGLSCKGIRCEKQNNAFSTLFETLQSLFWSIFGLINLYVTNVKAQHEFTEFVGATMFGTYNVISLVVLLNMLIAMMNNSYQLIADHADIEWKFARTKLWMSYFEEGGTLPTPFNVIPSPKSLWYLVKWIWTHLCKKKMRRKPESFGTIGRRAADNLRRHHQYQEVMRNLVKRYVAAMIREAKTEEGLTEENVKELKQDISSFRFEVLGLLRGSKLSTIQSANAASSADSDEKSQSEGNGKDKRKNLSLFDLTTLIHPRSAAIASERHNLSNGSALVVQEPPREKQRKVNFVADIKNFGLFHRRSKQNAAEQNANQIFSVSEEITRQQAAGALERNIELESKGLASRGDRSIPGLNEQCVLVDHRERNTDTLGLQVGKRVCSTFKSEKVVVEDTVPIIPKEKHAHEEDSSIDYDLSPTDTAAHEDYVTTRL

[10] = biological target: Mu-type opioid receptor (Homo sapiens, UniProt P35372); assay: (§1) Counterscreen for agonists of heterodimerization of the mu 1 (OPRM1) and delta 1 (OPRD1) opioid receptors: Luminescence-based cell-based high throughput dose response assay to identify agonists of OPRM1 homodimerization.; type: functional
[11] = biological target: Delta-type opioid receptor (Homo sapiens, UniProt P41143); assay: as §1, with “of OPRD1” for “of OPRM1”, “homodimerization. [Related pubchem assays (depositor defined):AID504326, AID504355, AID504692, AID504904, AID504905]” for “homodimerization.”; type: functional
[12] = biological target: 5-hydroxytryptamine receptor 5A (Homo sapiens, UniProt P47898); assay: Counterscreen for agonists of OPRM1-OPRD1 heterodimerization: luminescence-based cell-based high throughput dose response assay to identify agonists of 5-hydroxytryptamine (serotonin) 5A receptor (HTR5A). [Related pubchem assays (depositor defined):AID504326, AID504355, AID504692, AID504904, AID504905]; type: functional
[13] = biological target: T3, Hexokinase-1 (Homo sapiens, UniProt P19367); assay: HK1 enzyme inhibition by HKDC1 hits, SAR follow-up, selectivity assay for HKDC1 inhibitor project, biochemical, set 2, resazurin fluorescence coupled readout (AID 588356); type: functional
T3 sequence (P19367 whole entry): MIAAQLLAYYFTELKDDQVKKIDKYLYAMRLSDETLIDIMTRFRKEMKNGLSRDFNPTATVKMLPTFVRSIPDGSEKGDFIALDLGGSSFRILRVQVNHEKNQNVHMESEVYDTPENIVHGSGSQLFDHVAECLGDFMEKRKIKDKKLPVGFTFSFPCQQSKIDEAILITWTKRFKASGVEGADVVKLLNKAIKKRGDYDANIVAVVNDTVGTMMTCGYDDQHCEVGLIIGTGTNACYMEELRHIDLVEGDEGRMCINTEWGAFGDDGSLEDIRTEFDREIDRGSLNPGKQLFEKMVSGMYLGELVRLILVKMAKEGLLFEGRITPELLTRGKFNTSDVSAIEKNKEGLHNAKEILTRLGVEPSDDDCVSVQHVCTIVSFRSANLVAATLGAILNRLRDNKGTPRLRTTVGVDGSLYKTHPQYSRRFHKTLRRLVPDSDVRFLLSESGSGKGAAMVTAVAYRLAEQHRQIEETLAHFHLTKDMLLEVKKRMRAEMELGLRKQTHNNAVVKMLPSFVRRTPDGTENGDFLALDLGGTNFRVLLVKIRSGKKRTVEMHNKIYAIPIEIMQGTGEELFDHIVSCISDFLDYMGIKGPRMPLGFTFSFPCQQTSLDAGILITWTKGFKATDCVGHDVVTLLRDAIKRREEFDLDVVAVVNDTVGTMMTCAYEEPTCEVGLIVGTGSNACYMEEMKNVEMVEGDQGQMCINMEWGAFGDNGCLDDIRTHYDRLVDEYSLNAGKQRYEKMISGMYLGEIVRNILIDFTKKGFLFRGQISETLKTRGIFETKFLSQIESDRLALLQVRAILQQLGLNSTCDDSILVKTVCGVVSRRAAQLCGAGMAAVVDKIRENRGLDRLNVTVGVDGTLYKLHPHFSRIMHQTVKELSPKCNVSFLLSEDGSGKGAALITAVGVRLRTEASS

[14] = biological target: T4, Hexokinase HKDC1 (Homo sapiens, UniProt Q2TB90); assay: HKDC1 hexokinase inhibitors, SAR follow-up, biochemical, set 2 (AID 588355); type: functional
T4 sequence (Q2TB90 whole entry): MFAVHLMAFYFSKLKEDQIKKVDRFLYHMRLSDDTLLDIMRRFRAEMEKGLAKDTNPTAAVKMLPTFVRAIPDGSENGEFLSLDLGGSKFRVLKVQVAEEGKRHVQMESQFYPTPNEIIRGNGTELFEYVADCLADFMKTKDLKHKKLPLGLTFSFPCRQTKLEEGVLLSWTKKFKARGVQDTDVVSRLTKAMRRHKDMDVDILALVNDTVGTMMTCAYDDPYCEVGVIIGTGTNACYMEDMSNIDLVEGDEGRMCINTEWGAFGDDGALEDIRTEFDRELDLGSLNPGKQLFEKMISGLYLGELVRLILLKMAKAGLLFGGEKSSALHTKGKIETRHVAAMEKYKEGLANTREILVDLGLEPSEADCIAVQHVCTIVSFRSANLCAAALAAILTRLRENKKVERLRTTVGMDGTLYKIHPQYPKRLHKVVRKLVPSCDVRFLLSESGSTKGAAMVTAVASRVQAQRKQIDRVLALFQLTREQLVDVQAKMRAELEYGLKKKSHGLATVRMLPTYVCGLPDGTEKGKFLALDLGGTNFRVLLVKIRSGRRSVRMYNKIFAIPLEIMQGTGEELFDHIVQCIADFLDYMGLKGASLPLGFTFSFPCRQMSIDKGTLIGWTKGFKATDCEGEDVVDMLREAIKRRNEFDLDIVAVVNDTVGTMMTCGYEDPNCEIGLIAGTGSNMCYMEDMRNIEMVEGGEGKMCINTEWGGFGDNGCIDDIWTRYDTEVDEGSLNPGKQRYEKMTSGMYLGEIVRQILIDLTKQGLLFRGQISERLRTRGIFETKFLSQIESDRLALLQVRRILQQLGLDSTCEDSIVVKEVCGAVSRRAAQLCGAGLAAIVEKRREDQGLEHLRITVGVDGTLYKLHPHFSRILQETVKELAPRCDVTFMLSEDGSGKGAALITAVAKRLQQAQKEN

[15] = biological target: T2, Short transient receptor potential channel 4; assay: TRPC4 inhibitor concentration-response, dose response, cell-based, HEK293 TRPC4/mu-opioid, DAMGO stimulus, Fluo-4 (AID 492994); type: functional
[16] = biological target: T2, Short transient receptor potential channel 4; assay: SAR Analysis for the identification of selective inhibits of the transient receptor potential cation channel C4 (TRPC4): Automated Electrophysiology_2. [Related pubchem assays (depositor defined):AID2256]; type: functional

Chain of Beta-galactosidase (Q8VNN2 whole entry): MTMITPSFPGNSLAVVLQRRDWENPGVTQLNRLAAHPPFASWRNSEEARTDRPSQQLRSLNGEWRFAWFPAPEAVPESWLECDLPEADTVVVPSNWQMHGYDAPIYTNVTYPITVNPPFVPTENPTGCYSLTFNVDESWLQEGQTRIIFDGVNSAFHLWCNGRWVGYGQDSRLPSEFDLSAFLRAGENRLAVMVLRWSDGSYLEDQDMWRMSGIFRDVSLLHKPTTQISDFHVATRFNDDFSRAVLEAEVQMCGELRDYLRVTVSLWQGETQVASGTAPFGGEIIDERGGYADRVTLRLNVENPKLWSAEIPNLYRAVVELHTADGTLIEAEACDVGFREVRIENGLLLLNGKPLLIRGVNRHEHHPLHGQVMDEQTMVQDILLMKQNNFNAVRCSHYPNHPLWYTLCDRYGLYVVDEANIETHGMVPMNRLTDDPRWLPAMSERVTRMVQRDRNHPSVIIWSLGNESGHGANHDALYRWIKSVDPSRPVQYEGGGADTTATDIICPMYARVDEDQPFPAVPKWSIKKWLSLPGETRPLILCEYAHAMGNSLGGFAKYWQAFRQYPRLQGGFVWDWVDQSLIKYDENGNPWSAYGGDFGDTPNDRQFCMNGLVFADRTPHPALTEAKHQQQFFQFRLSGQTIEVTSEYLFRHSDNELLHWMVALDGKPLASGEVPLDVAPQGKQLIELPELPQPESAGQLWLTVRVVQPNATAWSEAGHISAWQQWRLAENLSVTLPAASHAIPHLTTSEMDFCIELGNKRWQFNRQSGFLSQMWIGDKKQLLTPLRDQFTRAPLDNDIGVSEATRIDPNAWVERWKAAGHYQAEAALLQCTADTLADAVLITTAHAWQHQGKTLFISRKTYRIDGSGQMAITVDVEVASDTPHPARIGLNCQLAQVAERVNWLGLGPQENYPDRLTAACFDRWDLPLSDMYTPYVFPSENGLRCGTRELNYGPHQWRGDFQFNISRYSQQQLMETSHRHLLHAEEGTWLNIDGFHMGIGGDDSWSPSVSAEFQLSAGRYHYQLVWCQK
Chain of 5-hydroxytryptamine receptor 5A (P47898 whole entry): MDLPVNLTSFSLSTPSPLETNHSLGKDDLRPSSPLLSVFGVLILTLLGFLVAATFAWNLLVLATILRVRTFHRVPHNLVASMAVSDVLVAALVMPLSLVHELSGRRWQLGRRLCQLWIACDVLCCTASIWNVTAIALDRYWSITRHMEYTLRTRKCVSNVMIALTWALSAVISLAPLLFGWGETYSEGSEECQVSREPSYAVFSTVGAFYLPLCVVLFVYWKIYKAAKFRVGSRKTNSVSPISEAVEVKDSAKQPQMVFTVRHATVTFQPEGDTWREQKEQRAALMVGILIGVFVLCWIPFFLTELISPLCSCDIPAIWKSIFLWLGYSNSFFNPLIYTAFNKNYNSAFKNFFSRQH
Chain of Mu-type opioid receptor (P35372 whole entry): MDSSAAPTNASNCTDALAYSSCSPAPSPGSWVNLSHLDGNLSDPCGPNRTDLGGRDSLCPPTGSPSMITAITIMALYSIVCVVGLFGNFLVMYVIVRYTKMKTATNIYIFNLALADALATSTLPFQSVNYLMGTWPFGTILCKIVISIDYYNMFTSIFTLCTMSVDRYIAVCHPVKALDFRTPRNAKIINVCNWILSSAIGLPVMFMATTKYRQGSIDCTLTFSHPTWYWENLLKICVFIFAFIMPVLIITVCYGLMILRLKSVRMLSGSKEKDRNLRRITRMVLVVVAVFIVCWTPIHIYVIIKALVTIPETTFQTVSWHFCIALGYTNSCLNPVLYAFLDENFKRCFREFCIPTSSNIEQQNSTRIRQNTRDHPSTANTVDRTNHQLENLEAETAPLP
Chain of Delta-type opioid receptor (P41143 whole entry): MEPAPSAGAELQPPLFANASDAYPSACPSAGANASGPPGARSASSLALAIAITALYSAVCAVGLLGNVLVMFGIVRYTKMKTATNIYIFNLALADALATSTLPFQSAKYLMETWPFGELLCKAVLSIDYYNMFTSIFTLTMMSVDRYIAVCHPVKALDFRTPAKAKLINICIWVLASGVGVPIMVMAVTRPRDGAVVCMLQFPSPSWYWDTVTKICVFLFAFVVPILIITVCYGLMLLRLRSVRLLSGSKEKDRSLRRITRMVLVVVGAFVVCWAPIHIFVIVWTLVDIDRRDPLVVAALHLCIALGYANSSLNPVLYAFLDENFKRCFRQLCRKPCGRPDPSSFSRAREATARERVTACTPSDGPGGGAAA

With `Cc1cccc(C(=O)Nc2ccc(C(=O)/C=C/c3ccncc3)cc2)c1` the IC50 [1] was 9.71 µM (active), the IC50 [2] was 3.51 µM (active) and the EC50 [3] was > 40 µM (inactive). For the same molecule, the AC50 [4] was 3.41 µM (active), the EC50 [5] was > 59.6 µM (inactive) and the AC50 [6] was 36.4 µM (active). For the same molecule, the EC50 [7] was > 59.6 µM (inactive).
For `Cc1ccc(-n2cc(CNCCCn3cccn3)c(-c3cccc(C)c3)n2)cc1`, the AC50 [8] was 24.3 µM (active).
For `CN(C)C(CNC(=O)Cc1ccc([N+](=O)[O-])cc1)c1ccccc1` (stereo unspecified), the EC50 [9] was 0.531 µM (active), the EC50 [10] was > 92.5 µM (inactive) and the EC50 [11] was > 92.5 µM (inactive). For the same molecule, the EC50 [12] was > 92.5 µM (inactive).
With `COc1ccc(NC2c3ccccc3C(=O)N2c2ccccc2C)cc1` (stereo unspecified) the IC50 [13] was > 80 µM (inactive) and the IC50 [14] was > 80 µM (inactive).
In the case of `Cc1cc(N2CCCCCC2)nc2ccc(F)cc12`, the IC50 [15] is reported as 3.99 µM (active) and the IC50 [16] is reported as 1.63 µM (active).
